Read-outs that look alike come from different tables or passages of the source.
Tests used:
[1] = tested on: HEK293 human embryonic kidney cell line; assay: MTT cytotoxicity assay, normal cell line HEK293; type: cell-based; conditions: read-out: IC50 (Mean ± SD) HEK293
Description: All the synthesized imidazothiazole derivatives linked with thiazolidinone moiety (4a-g and 5a-d, Fig. 4) were evaluated for their in- vitro anticancer activities against three selected human cancer cell lines namely non-small lung (A549), breast (MCF7) and colorectal (HCT116) and one normal human embryonic kidney cell line (HEK293) using the 3‐(4,5‐Dimethylthiazol‐2‐yl)-2,5‐Diphenyltetrazolium Bromide (MTT) assay method. […]. […].
Cytotoxicity study of the newly synthesized derivatives 4a-g and 5a-d was performed by MTT colorimetric assay method. […] Compounds were tested against selected cancer cell lines namely A549 (Lung), MCF-7(Breast) HCT116 (Colon), normal human embryonic kidney cell line (HEK293) and procured from National Centre for Cell Science Complex (NCCS) Pune University, India. Into a 96 well plate, cells were seeded into each well (3 × 10^3 cells/ per well), the plate were incubated for 24 h, after that the culture medium was discarded and replaced with fresh medium along with our newly synthesized test compounds in different concentration (10, 20, 40 and 80 µM) followed by incubation for 72 h. Further, the media of each well of the plates were aspirated with the addition of 100 µL MTT solution followed by incubation for the next 5 h at 37 °C. Finally, each well is treated with DMSO (100 µL) and swirled to dissolve the dark crystals of formazan. ELISA reader was used to measure the absorbance at 570 nm. The experiment was repeated three times; Graph pad prism and excel are used to calculate the IC50 values.

[2] = tested on: A549 (Lung) cancer cell line; assay: MTT cytotoxicity assay, A549; conditions: Homo sapiens, A549, 72 h, read-out: IC50 (µM) (Mean ± SD) A549
Description: (§1) All the synthesized imidazothiazole derivatives linked with thiazolidinone moiety (4a-g and 5a-d, Fig. 4) were evaluated for their in- vitro anticancer activities against three selected human cancer cell lines namely non-small lung (A549), breast (MCF7) and colorectal (HCT116) and one normal human embryonic kidney cell line (HEK293) using the 3‐(4,5‐Dimethylthiazol‐2‐yl)-2,5‐Diphenyltetrazolium Bromide (MTT) assay method. […] Compounds were tested against selected cancer cell lines namely A549 (Lung), MCF-7(Breast) HCT116 (Colon), normal human embryonic kidney cell line (HEK293) and procured from National Centre for Cell Science Complex (NCCS) Pune University, India. Into a 96 well plate, cells were seeded into each well (3 × 10^3 cells/ per well), the plate were incubated for 24 h, after that the culture medium was discarded and replaced with fresh medium along with our newly synthesized test compounds in different concentration (10, 20, 40 and 80 µM) followed by incubation for 72 h. […] Finally, each well is treated with DMSO (100 µL) and swirled to dissolve the dark crystals of formazan. ELISA reader was used to measure the absorbance at 570 nm. The experiment was repeated three times; Graph pad prism and excel are used to calculate the IC50 values[51].

[3] = tested on: MCF7 human breast cancer cell line; assay: MTT cytotoxicity assay, MCF7; conditions: MCF7, 72 h, read-out: IC50 (µM) (Mean ± SD) MCF7
Description: as §1

[4] = tested on: HCT116 human colorectal cancer cell line; assay: MTT cytotoxicity assay, HCT116; conditions: HCT-116, 72 h, read-out: IC50 (µM) (Mean ± SD) HCT116
Description: as §1

[5] = molecular target: Bovine serum albumin (BSA) (Bos taurus, UniProt P02769); assay: BSA (protein albumin) denaturation inhibition assay; conditions: for BSA denaturation inhibition assay Mean absorbance ± SEM: 660 nm; for inhibition at 100 µg/mL: read-out: BSA denaturation inhibition assay % inhibition of denaturation, 100 μg/mL
Sequence of Bovine serum albumin (BSA) (P02769 25-607): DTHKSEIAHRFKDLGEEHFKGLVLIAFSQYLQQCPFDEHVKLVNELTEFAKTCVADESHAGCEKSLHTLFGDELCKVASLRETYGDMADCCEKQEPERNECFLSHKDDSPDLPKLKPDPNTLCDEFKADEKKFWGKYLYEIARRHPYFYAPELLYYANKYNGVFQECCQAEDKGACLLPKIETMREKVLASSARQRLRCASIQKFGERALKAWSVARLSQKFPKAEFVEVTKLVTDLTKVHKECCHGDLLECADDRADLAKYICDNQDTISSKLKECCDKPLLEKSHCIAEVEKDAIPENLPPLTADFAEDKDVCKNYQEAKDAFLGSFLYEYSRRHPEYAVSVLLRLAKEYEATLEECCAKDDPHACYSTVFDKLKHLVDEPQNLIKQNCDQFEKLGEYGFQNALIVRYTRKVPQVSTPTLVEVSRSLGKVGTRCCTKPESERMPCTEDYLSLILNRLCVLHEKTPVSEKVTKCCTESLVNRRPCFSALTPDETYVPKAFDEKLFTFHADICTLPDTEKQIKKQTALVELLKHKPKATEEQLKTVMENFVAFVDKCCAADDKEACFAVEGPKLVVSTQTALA
Description: All the synthesized compounds were evaluated for anti-inflammatory activity by the inhibition of the albumin denaturation technique. […] All the test solutions (1 mL, 100 μg/mL) were then mixed with 1 mL of albumin solution (1%) and phosphate buffer saline and then incubated for around 15 min at 27 ± 1 °C. Further, the denaturation of protein was induced by keeping the reaction mixture on the water bath for 10 min and maintaining the temperature at 60 °C. Once the solution gets cooled, the turbidity was measured using UV–Visible spectrophotometer at 660 nm.

[6] = tested on: carrageenan-induced rat hind paw edema; assay: Carrageenan-induced rat paw edema inhibition assay; type: in vivo; conditions: after 4 h; for % inhibition (paw edema) / Increase in Paw volume SEM: oral 0.0314 mmol/kg; for Activity relative to standard drug: relative to diclofenac sodium; for Increase in Paw volume SEM: n = 6
Description: The anti-inflammatory efficacy of the newly synthesised compounds was assessed using a carrageenan-induced rat hind paw edema technique The animals were divided into groups of six at random, fasted for 24 h before to the experiment, and given free access to water. 0.5% CMC solution was given to the control group only. […] One hour after the administration of the test compounds and the reference drug, 0.1 mL of a 1% carrageenan solution in saline was subcutaneously injected into the subplantar area of the right hind paw of each rat. The right hind paw volume was measured using a Digital Plethysmometer PLM-01 Plus (Orchid Scientifics and Innovatives India Pvt. Ltd., Mumbai, India) at 3 and 4 h after carrageenan therapy. The following calculation was used to compute the percent edema inhibition from the mean effect in the treated and control animals: Percent edema inhibition=Vc-Vt/Vc×100 where Vc denotes the mean increase in paw volume in the control group of rats and Vt denotes the mean increase in paw volume in rats treated with test chemicals. After a 15-day washout period, the same group of rats utilised for the anti-inflammatory activity were employed for the ulcerogenic activity.

[7] = tested on: gastric mucosa of rats; assay: Ulcerogenic activity; type: in vivo, rat; conditions: oral 0.0942 mmol/kg
Description: The Compounds (4a-d, 5a-b) which were found potent as anti-inflammatory agents were further screened for their ulcerogenic risk. The compounds and the standard drug were tested at an oral dose of 0.0942 mmol/kg.
Animals were divided into different groups consisting of 6 rats per group. […] The control group received 0.5% of the carboxymethylcellulose (CMC) solution. […] 24 h before the test compounds were administered. After receiving the medication, the rats were given regular food for 17 h and then sacrificed. The stomach was taken out and opened along its greater curvature before being gently cleansed by dipping it in normal saline and then washing it with distilled water. The mucosal injury/damage was examined thoroughly using a magnifying glass. The mucosal injury in each stomach was scored using the following score system: 0.5: Redness; 1.0: Spot Ulcers; 1.5: Hemorrhagic Streaks; 2.0: Ulcers > 3 but 5, 3.0: Ulcers > 5. The severity index (SI) of stomach mucosal injury was calculated as the mean score of each treated group minus the mean score of the control group.

[8] = tested on: gastric mucosa tissue of rats; assay: Lipid peroxidation in gastric mucosa; type: in vivo, rat; conditions: oral 0.0942 mmol/kg
Description: The compounds screened for ulcerogenic potential were also analysed for lipid peroxidation. Lipid peroxidation is measured as nmolMDA/100 mg of gastric mucosa tissue. […] Thus, it was concluded that protection of gastric mucosa might be related to the inhibition of lipid peroxidation.
Lipid peroxidation in the gastric mucosa was determined using the reported method by Ohkawa H. et al.[61]. The gastric mucosa of the glandular area was scraped off using glass slides after the stomach had been examined for ulcers. Gastric mucosa was weighed (100 mg) and homogenised in 1.8 cm^3 of ice-cold solution of KCl (1.15%). The homogenate is further added with 0.2 cm^3 of 8.1% sodium dodecyl sulphate (SDS), 1.5 cm^3 of acetate buffer, and 1.5 cm^3 of 0.8% thiobarbituric acid. After adding all buffers, the mixture was kept for incubation for 60 min over water bath, maintaining the temperature of the water bath at 95 °C. Later, the mixture was allowed to cool and then extracted with a freshly prepared mixture of n-butanol and pyridine (15:1 v/v), the organic layer obtained was centrifuged at 3000 rpm for about 10 min. The organic layer was separated out and visualised on UV–visible spectrophotometer. Concentration was measured using the following formula: Concentration=Absorbance×volume×109÷1.56×10^5×1000
Results obtained were expressed as nmol MDA/100 mg tissue and extinction coefficient (1.56 × 10^5) cm^-1 M^-1.

[9] = molecular target: EGFR kinase (Homo sapiens, UniProt P00533); assay: In vitro EGFR kinase inhibitory assay (ELISA, phospho-EGFR in A549 cell lysates)
Sequence of EGFR kinase (P00533 25-1210): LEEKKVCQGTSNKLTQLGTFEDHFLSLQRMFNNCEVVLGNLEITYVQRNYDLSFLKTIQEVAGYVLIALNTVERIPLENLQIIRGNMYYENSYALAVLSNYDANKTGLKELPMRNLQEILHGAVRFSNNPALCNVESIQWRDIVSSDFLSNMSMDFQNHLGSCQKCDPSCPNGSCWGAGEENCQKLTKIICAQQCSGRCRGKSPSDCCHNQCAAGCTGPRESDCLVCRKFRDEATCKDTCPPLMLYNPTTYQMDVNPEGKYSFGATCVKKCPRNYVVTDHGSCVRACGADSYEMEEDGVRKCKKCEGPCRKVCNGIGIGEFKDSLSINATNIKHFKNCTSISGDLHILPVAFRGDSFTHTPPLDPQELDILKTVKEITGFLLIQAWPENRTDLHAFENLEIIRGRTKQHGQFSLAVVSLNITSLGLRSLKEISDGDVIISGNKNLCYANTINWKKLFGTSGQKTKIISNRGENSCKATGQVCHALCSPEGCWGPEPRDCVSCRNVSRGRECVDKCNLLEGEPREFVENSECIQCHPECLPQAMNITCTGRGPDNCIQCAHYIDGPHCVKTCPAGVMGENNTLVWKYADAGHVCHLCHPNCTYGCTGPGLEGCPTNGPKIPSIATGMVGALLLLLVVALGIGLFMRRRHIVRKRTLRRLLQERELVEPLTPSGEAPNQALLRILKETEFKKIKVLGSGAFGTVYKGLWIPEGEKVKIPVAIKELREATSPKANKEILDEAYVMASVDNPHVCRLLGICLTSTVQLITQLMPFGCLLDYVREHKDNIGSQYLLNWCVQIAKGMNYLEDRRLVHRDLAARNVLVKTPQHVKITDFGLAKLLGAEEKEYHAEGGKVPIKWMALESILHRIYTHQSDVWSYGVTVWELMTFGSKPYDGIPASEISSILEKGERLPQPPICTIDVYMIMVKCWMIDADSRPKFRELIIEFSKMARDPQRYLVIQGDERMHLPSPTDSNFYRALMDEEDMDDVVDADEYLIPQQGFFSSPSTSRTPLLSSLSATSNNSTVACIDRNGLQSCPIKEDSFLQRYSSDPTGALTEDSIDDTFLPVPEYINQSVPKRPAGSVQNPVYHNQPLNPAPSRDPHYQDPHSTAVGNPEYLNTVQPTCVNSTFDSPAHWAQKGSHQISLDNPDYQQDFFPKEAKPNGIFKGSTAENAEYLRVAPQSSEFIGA
Description: For all the synthesized compounds, the overall methodology of a spectrophotometric assay for the inhibition of EGFR tyrosine kinase activity was evaluated in human A549 cells, which expressed high levels of EGFR protein. […] Cells were then washed with cold PBS, lysed in 0.2 ml/well of HNTG buffer (50 mM HEPES [(4‐(2‐hydroxyethyl)‐piperazineethanesulfonic acid; pH 7.5], 150 mM NaCl, 1.5 mM MgCl, 10% glycerol, 1% Triton X‐100, 0.5 mM sodium fluoride, 2 g/ml aprotinin, 2 g/ml pepstatin A, 1 mM sodium orthovanadate, 2 g/ml leupeptin, 1 mM phenyl methyl sulfonyl fluoride) for 10 min, and the lysates were collected as the supernatant fraction after a 12‐min centrifugation at 15,000 g. The specific EGFR concentration was measured by ELISA assay. Briefly, the wells of ELISA plates were coated with supernatant fraction and incubated at 4 °C overnight After washing three times with buffer (20 mM PBS, pH 7.2 containing 0.05% Tween‐20), the wells were blocked with 1% BSA for 2–3 h at room temperature. Further, the plate was washed and then mouse serum at 1,000‐fold dilution was added, followed by washing and incubation with phospho‐EGFR antibody (Invitrogen) at 4 °C overnight. The wells were washed and incubated with substrate solution (o‐phenylenediamine dihydrochloride), for 30 min, and the absorbance read on an ELISA plate reader at 490 nm[52]. %Inhibition=mean OD of untreated group-mean OD of treated group/mean OD of untreated group)×100.

[10] = tested on: carrageenan-induced paw edema inflammation; design: method as in earlier work; conditions: albino rats; ref 50 (Saliyeva et al.); cited from earlier work
[11] = HEK293, MTT, 72 h, normal cell line

## C#Cc1cccc(Nc2ncnc3cc(OCCOC)c(OCCOC)cc23)c1 [Erlotinib, reference compound]
[1]; HEK293, 72 h
  IC50: 80.2 ± 1.3 µM
[2]
  IC50: 8.34 ± 8.09 µM
[3]
  IC50: 10.7 ± 5.65 µM
[4]
  IC50: 12.5 ± 1.87 µM

## CC1SC(c2c(-c3ccccc3)nc3sccn23)N(c2ccc(Cl)cc2Cl)C1=O (stereo not shown) [Compound 4d, 3-(2,4-Dichlorophenyl)-5-methyl-2-(6-phenylimidazo[2,1-b]thiazol-5-yl)thiazolidin-4-one]
[1]; [11]
  IC50: 181 ± 5.74 µM
[5]; 100 μg/mL
  BSA denaturation inhibition assay Mean absorbance ± SEM: 0.326 ± 0.002
[5]
  inhibition at 100 µg/mL: 82%
[6]
  % inhibition (paw edema): 67.78%
  Activity relative to standard drug: 84.39
[7]
  Mean ulcer severity index ± SEM: 1.250 ± 0.281
[8]
  Lipid peroxidation: 6.16 ± 0.135 Nmol MDA/100 mg tissue
other
  melting point: 151 to 153 °C
[2]
  IC50: 31.8 ± 1.1 µM
[3]
  IC50: 35.8 ± 1.03 µM
[4]
  IC50: 49.5 ± 7.14 µM
[9]
  IC50: 36 ± 1.89 µM

## Cc1ccc(N2C(=O)C(C)SC2c2c(-c3ccccc3)nc3sccn23)cc1 (stereo not shown) [Compound 4f]
[1]; [11]
  IC50: 147 ± 4.57 µM
[5]; 100 μg/mL
  BSA denaturation inhibition assay Mean absorbance ± SEM: 0.288 ± 0.002
[5]
  inhibition at 100 µg/mL: 60.6%
other
  melting point: 155 to 157 °C
[2]
  IC50: 40.22 ± 0.38 µM
[3]
  IC50: 33.7 ± 0.84 µM
[4]
  IC50: 47.6 ± 8.97 µM
[9]
  IC50: 49.7 ± 4.89 µM

## O=C(O)Cc1ccccc1Nc1c(Cl)cccc1Cl [Diclofenac sodium, reference compound]
[6]
  % inhibition (paw edema): 80.32%
[10]
  % inhibition carrageenan-induced paw edema: 38.8%

## CC1SC(c2c(-c3ccccc3)nc3sccn23)N(c2ccc([N+](=O)[O-])cc2)C1=O (stereo not shown) [Compound 4e, 5-Methyl-3-(4-nitrophenyl)-2-(6-phenylimidazo[2,1-b]thiazol-5-yl) thiazolidin-4-one]
[1]; [11]
  IC50: 125 ± 5.8 µM
[5]; 100 μg/mL
  BSA denaturation inhibition assay Mean absorbance ± SEM: 0.289 ± 0.012
[5]
  inhibition at 100 µg/mL: 61.1%
other
  melting point: 187 to 189 °C
[2]
  IC50: 50.6 ± 0.7 µM
[3]
  IC50: 43.6 ± 7.19 µM
[4]
  IC50: 89.9 ± 4.89 µM
[9]
  IC50: 57.1 ± 0.38 µM

## Cc1ccc(N2C(=O)CSC2c2c(-c3ccccc3)nc3sccn23)cc1 (stereo not shown) [Compound 5c]
[1]; [11]
  IC50: 109 ± 5.32 µM
[5]; 100 μg/mL
  BSA denaturation inhibition assay % inhibition of denaturation: 65.28%
  BSA denaturation inhibition assay Mean absorbance ± SEM: 0.314 ± 0.003
[5]
  inhibition at 100 µg/mL: 79.9%
other
  melting point: 153 to 155 °C
[2]
  IC50: 34.2 ± 2.82 µM
[3]
  IC50: 35.8 ± 4.61 µM
[4]
  IC50: 60 ± 6.44 µM
[9]
  IC50: 29.3 ± 4.61 µM

## O=C1CSC(c2c(-c3ccccc3)nc3sccn23)N1c1ccc(Cl)cc1 (stereo not shown) [Compound 5a, 3-(4-Chlorophenyl)-2-(6-phenylimidazo[2,1-b]thiazol-5-yl) thiazolidin-4-one]
[1]; [11]
  IC50: 117 ± 5.69 µM
[5]; 100 μg/mL
  BSA denaturation inhibition assay Mean absorbance ± SEM: 0.323 ± 0.002
[5]
  inhibition at 100 µg/mL: 79.9%
[6]
  % inhibition (paw edema): 76.24%
  Increase in Paw volume SEM: 0.163 ± 0.018
  Activity relative to standard drug: 94.92
[7]
  Mean ulcer severity index ± SEM: 1.083 ± 0.238
[8]
  Lipid peroxidation: 5.75 ± 0.102 Nmol MDA/100 mg tissue
other
  melting point: 177 to 179 °C
[2]
  IC50: 42.7 ± 3.35 µM
[3]
  IC50: 35.1 ± 1.25 µM
[4]
  IC50: 58.8 ± 3.14 µM
[9]
  IC50: 30.1 ± 4.17 µM

## O=C1CSC(c2c(-c3ccccc3)nc3sccn23)N1c1ccc(Br)cc1 (stereo not shown) [Compound 5b, 3-(4-Bromophenyl)-2-(6-phenylimidazo[2,1-b]thiazol-5-yl) thiazolidin-4-one]
[1]; [11]
  IC50: 105 ± 3.5 µM
[5]; 100 μg/mL
  BSA denaturation inhibition assay Mean absorbance ± SEM: 0.317 ± 0.003
[5]
  inhibition at 100 µg/mL: 76.6%
[6]
  % inhibition (paw edema): 74.78%
  Increase in Paw volume SEM: 0.133 ± 0.008
  Activity relative to standard drug: 93.10
[7]
  Mean ulcer severity index ± SEM: 1.000 ± 0.258
[8]
  Lipid peroxidation: 5.68 ± 0.071 Nmol MDA/100 mg tissue
other
  melting point: 159 to 161 °C
[2]
  IC50: 35.5 ± 2.15 µM
[3]
  IC50: 44.2 ± 0.85 µM
[4]
  IC50: 58.6 ± 4.51 µM
[9]
  IC50: 33.1 ± 1.58 µM

## COc1ccc(N2C(=O)CSC2c2c(-c3ccccc3)nc3sccn23)cc1 (stereo not shown) [Compound 5d, 3-(4-Methoxyphenyl)-2-(6-phenylimidazo[2,1-b]thiazol-5-yl) thiazolidin-4-one]
[1]; [11]
  IC50: 111.8 ± 0.25 µM
[5]; 100 μg/mL
  BSA denaturation inhibition assay Mean absorbance ± SEM: 0.287 ± 0.004
[5]
  inhibition at 100 µg/mL: 59.9%
other
  melting point: 160 to 162 °C
[2]
  IC50: 33.1 µM
[3]
  IC50: 38.1 ± 0.89 µM
[4]
  IC50: 65.2 ± 0.9 µM
[9]
  IC50: 48 ± 1.97 µM

## COc1ccc(N2C(=O)C(C)SC2c2c(-c3ccccc3)nc3sccn23)cc1 (stereo not shown) [Compound 4g, 3-(4-Methoxyphenyl)-5-methyl-2-(6-phenylimidazo[2,1-b]thiazol-5-yl) thiazolidin-4-one]
[1]; [11]
  IC50: 164 ± 4.69 µM
[5]; 100 μg/mL
  BSA denaturation inhibition assay Mean absorbance ± SEM: 0.291 ± 0.011
[5]
  inhibition at 100 µg/mL: 62.1%
other
  melting point: 162 to 164 °C
[2]
  IC50: 70.1 ± 2.02 µM
[3]
  IC50: 52.9 ± 1.65 µM
[4]
  IC50: 76.3 ± 5.66 µM
[9]
  IC50: 46.5 ± 7.14 µM

Reference: PMC11009276, “Design, synthesis, biological assessment and molecular modeling studies of novel imidazothiazole-thiazolidinone hybrids as potential anticancer and anti-inflammatory agents” (Scientific Reports, 2024)
